In patent US12528812B2 (Genentech, Inc., priority 2020, dated 2026) one finds Ki and IC50 data, which are given here for 22 compounds.

The structures appear in SMILES notation.

Experiment [1] has as its target Recombinant human JAK2 kinase domain protein (Residues 812-1132) (Homo sapiens, UniProt O60674). Description: JAK2 biochemical assay (LabChip mobility shift, Ki). The note with it: Biochem JAK2 Ki.
Method: The in vitro biochemical assays quantify JAK-catalyzed phosphorylation of a synthetic peptide, as detected using a LabChip® EZ Reader II microfluidic mobility shift instrument (PerkinElmer; Waltham, MA). […] Y-1B is fluorescently labeled on the N-terminus with 5-FAM (5-carboxyfluorescein) and contains a single tyrosine residue (Y) that can be phosphorylated by JAK activity. The substrate peptide stock is prepared in DMSO at 5 mM. […] In each titration experiment, test compound was tested in duplicate at each of the twelve concentrations. Blank reactions contained ATP, peptide, and DMSO, but no JAK or test compound, whereas uninhibited control reactions contained ATP, peptide, JAK, and DMSO, but no test compound.
Peptide plus ATP mixture (24 μL) was added to 1 μL of test compound in DMSO (or DMSO alone). The reactions were initiated by adding 25 μL of JAK enzyme to the inhibitor/peptide/ATP mixture before thoroughly mixing the resultant solution. Reactions were incubated at room temperature (22° C.-23° C.) in a final volume of 50 μL per well in 384-well plates. After a 30-minute incubation, the reactions were stopped by adding 25 μL of 150 mM ethylenediaminetetraacetic acid in 100 mM HEPES buffer (pH 7.2) containing 0.015% Brij 35 to each well.
In each reaction, the residual Y-1B substrate and the phospho-peptide product generated were separated using the EZ Reader II instrument. Electrophoretic separation of molecules of product from molecules of substrate was achieved using downstream and upstream voltages of −500 and −2600 V, respectively, at an operating pressure of −1.3 psi.
The extent (or percent) of conversion of substrate to product was calculated from the corresponding peak heights in the electropherogram using HTS Well Analyzer software, Version 5.2 (PerkinElmer), and the following equation (Equation 1): conversion=[P÷(S+P)]×100 Equation 1% where S and P represent the peak heights of the substrate and product, respectively. After any baseline signal from blank wells containing no JAK was subtracted from the signal of all test wells, the % conversion data were converted to fractional activity as shown in Equation 2, where vi and vo are the % conversion in the presence and absence of test compound, respectively.
Experiment [2] addresses T1, recombinant human JAK1 kinase domain protein (Residues 854-1154) (Homo sapiens, UniProt P23458).
T1 construct: human JAK1 kinase domain protein (Residues 854-1154); purchased Proteros Biostructures GmbH (Martinsried, Germany); host or cells: insect cells
As to the kind of experiment: JAK1 biochemical assay (LabChip mobility shift, Ki). Particulars: read-out: Biochem JAK1 Ki.

Experiment [3] concerns IL-13-stimulated STAT6 phosphorylation in human lung bronchial epithelial BEAS-2B cell line. As to the kind of experiment: P-STAT6 BEAS-2B + IL-13 cell assay. The class given is cell-based. The note with it: Homo sapiens, BEAS-2B, BEAS2B cells, IL13 stimulation; read-out: Cellular JAK1 PSTAT6 BEAS2B + IL13. The essentials: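 Phospho-STAT6 (Tyr641) was quantified in lysates by MSD electrochemiluminescence after human IL-13 challenge (250 ng/mL stock, 15 min, 37 °C). Before that, BEAS-2B cells cultured 48 h had 1 h compound exposure over 10 concentrations. Percent of control was fitted to a four-parameter logistic model to give IC50.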

T1 sequence (P23458 854-1154): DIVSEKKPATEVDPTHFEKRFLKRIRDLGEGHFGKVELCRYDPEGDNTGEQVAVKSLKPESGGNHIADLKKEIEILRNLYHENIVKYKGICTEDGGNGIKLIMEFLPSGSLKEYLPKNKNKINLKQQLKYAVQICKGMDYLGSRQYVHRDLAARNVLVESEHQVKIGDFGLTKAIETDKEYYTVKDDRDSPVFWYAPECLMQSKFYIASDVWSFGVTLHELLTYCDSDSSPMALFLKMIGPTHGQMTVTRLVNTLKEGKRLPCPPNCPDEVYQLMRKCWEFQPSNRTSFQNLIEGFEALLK
Chain of Recombinant human JAK2 kinase domain protein (Residues 812-1132) (O60674 812-1132): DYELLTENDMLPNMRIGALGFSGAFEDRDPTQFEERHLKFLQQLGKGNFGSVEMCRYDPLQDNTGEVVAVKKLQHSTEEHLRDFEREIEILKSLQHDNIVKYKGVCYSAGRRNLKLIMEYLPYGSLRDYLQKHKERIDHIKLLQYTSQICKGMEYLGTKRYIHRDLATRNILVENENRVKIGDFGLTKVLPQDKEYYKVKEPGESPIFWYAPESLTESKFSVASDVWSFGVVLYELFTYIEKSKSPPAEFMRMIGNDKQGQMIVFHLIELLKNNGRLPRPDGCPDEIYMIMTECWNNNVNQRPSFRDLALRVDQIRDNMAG

In the case of `Cn1cc(NC(=O)c2cnn3cccnc23)c(-c2cc(Oc3cccc(CN(CCO)CCO)c3)ccc2OC(F)F)n1` [Example 45, N-[3-[5-[3-[[bis(2-hydroxyethyl)amino]methyl]phenoxy]-2-(difluoromethoxy)phenyl]-1-methyl-pyrazol-4-yl]pyrazolo[1,5-a]pyrimidine-3-carboxamide], the Ki is 0.5 nM in experiment [1] and 0.58 nM in experiment [2]. For the same compound, the IC50 in experiment [3] is 34 nM.
With `Cn1cc(NC(=O)c2cnn3cccnc23)c(-c2cc(Oc3cccc(CN4CCOCC4)c3)ccc2OC(F)F)n1` [Example 46, N-[3-[2-(difluoromethoxy)-5-[3-(morpholinomethyl)phenoxy]phenyl]-1-methyl-pyrazol-4-yl]pyrazolo[1,5-a]pyrimidine-3-carboxamide], the Ki is 1.6 nM in experiment [1] and 1.5 nM in experiment [2]. The IC50 in experiment [3] was 67 nM.
Take `Cn1cc(NC(=O)c2cnn3cccnc23)c(-c2cc(Oc3cccc(CNCCN4CCOCC4)c3)ccc2OC(F)F)n1` [Example 47, N-[3-[2-(difluoromethoxy)-5-[3-[(2-morpholinoethylamino)methyl]phenoxy]phenyl]-1-methyl-pyrazol-4-yl]pyrazolo[1,5-a]pyrimidine-3-carboxamide]: the values for the Ki in experiment [1] and in experiment [2] were 1.6 nM and 2 nM, respectively. Besides, the IC50 in experiment [3] was 24 nM.
On to `Cn1cc(NC(=O)c2cnn3cccnc23)c(-c2cc(Oc3cccc(CNC(CO)CO)c3)ccc2OC(F)F)n1` [Example 48, N-[3-[2-(difluoromethoxy)-5-[3-[[[2-hydroxy-1-(hydroxymethyl)ethyl]amino]methyl]phenoxy]phenyl]-1-methyl-pyrazol-4-yl]pyrazolo[1,5-a]pyrimidine-3-carboxamide], for which the Ki is 0.64 nM in experiment [1] and 0.76 nM in experiment [2]. For the same compound, the IC50 in experiment [3] amounted to 86 nM.
Regarding `Cc1ccc(Oc2ccc(OC(F)F)c(-c3nn(C)cc3NC(=O)c3cnn4cccnc34)c2)cc1C(=O)N1CCN(C)CC1` [Example 50, N-[3-[2-(difluoromethoxy)-5-[4-methyl-3-(4-methylpiperazine-1-carbonyl)phenoxy]phenyl]-1-methyl-pyrazol-4-yl]pyrazolo[1,5-a]pyrimidine-3-carboxamide], the Ki in experiment [1] was determined as 0.46 nM; in experiment [2], 0.64 nM. The IC50 in experiment [3] turned out to be 35 nM.
Taken in the same sequence, the figures for `NCc1cc(Oc2ccc(OC(F)F)c(-c3n[nH]cc3NC(=O)c3cnn4cccnc34)c2)ccc1C(F)(F)F` [Example 52, N-[3-[5-[3-(aminomethyl)-4-(trifluoromethyl)phenoxy]-2-(difluoromethoxy)phenyl]-1H-pyrazol-4-yl]pyrazolo[1,5-a]pyrimidine-3-carboxamide] were 2.3 nM, 3 nM and 91 nM.
Taken in the same sequence, the figures for `Cn1cc(NC(=O)c2cnn3cccnc23)c(-c2cc(Oc3cccc(C4(O)CNC4)c3)ccc2OC(F)F)n1` [Example 53] were 0.27 nM, 0.32 nM and 210 nM.
Turning to `Cc1ccc(Oc2ccc(OC(F)F)c(-c3nn(C)cc3NC(=O)c3cnn4cccnc34)c2)cc1C(=O)N1CCNCC1` [Example 54, N-[3-[2-(difluoromethoxy)-5-[4-methyl-3-(piperazine-1-carbonyl)phenoxy]phenyl]-1-methyl-pyrazol-4-yl]pyrazolo[1,5-a]pyrimidine-3-carboxamide], the Ki stood at 0.42 nM in experiment [1] and 0.43 nM in experiment [2]. The IC50 in experiment [3] is 58 nM.
`CN(C)C(=O)CNCc1cccc(Oc2ccc(OC(F)F)c(-c3nn(C)cc3NC(=O)c3cnn4cccnc34)c2)c1` [Example 55, N-[3-[2-(difluoromethoxy)-5-[3-[[[2-(dimethylamino)-2-oxo-ethyl]amino]methyl]phenoxy]phenyl]-1-methyl-pyrazol-4-yl]pyrazolo[1,5-a]pyrimidine-3-carboxamide]: the Ki in experiment [1] amounted to 0.58 nM; in experiment [2], 0.9 nM. The IC50 in experiment [3] is 48 nM.
Regarding `O=C(Nc1cn(C2COC2)nc1-c1cc(Oc2ccccc2)ccc1OC(F)F)c1cnn2cccnc12` [Example 56, N-[3-[2-(difluoromethoxy)-5-phenoxy-phenyl]-1-(oxetan-3-yl)pyrazol-4-yl]pyrazolo[1,5-a]pyrimidine-3-carboxamide], the values for the Ki in experiment [1] and in experiment [2] were 0.25 nM and 0.35 nM, respectively. In experiment [3], the IC50 was found to be 15 nM.
Taken in the same sequence, the figures for `Cn1cc(NC(=O)c2cnn3cccnc23)c(-c2cc(Oc3cccc(-n4nccc4CN)c3)ccc2OC(F)F)n1` [Example 57, N-[3-[5-[3-[5-(aminomethyl)pyrazol-1-yl]phenoxy]-2-(difluoromethoxy)phenyl]-1-methyl-pyrazol-4-yl]pyrazolo[1,5-a]pyrimidine-3-carboxamide] were 0.69 nM, 0.91 nM and 37 nM.
On to `CN(CC(=O)N(C)C)Cc1cccc(Oc2ccc(OC(F)F)c(-c3nn(C)cc3NC(=O)c3cnn4cccnc34)c2)c1` [Example 60], for which the inhibition constant (Ki) in experiment [1] came out at 0.75 nM; in experiment [2], 0.81 nM. The IC50 in experiment [3] worked out at 35 nM.
With `Cn1cc(NC(=O)c2cnn3cccnc23)c(-c2cc(Oc3ccc(CN4CCOCC4)cc3)ccc2OC(F)F)n1` [Example 61, N-[3-[2-(difluoromethoxy)-5-[4-(morpholinomethyl)phenoxy]phenyl]-1-methyl-pyrazol-4-yl]pyrazolo[1,5-a]pyrimidine-3-carboxamide], the Ki worked out at 2.9 nM in experiment [1] and 5.1 nM in experiment [2]. Further, the IC50 in experiment [3] amounted to 130 nM.
As to `CN(C)C(=O)c1cccc(Oc2ccc(OC(F)F)c(-c3nn(C)cc3NC(=O)c3cnn4cccnc34)c2)c1` [Example 62, N-[3-[2-(difluoromethoxy)-5-[3-(dimethylcarbamoyl)phenoxy]phenyl]-1-methyl-pyrazol-4-yl]pyrazolo[1,5-a]pyrimidine-3-carboxamide], the inhibition constant Ki in experiment [1] amounted to 0.24 nM; in experiment [2], 0.35 nM. Besides, the IC50 in experiment [3] is 14 nM.
As to `Cn1cc(NC(=O)c2cnn3cccnc23)c(-c2cc(Oc3ccc4c(c3)CCNC4)ccc2OC(F)F)n1` [Example 63, N-[3-[2-(difluoromethoxy)-5-(1,2,3,4-tetrahydroisoquinolin-6-yloxy)phenyl]-1-methyl-pyrazol-4-yl]pyrazolo[1,5-a]pyrimidine-3-carboxamide], the Ki is 0.42 nM in experiment [1] and 1.7 nM in experiment [2]. Also, the IC50 in experiment [3] worked out at 47 nM.
Taken in the same sequence, the figures for `CN1CCc2cc(Oc3ccc(OC(F)F)c(-c4nn(C)cc4NC(=O)c4cnn5cccnc45)c3)ccc2C1` [Example 64, N-[3-[2-(difluoromethoxy)-5-[(2-methyl-3,4-dihydro-1H-isoquinolin-6-yl)oxy]phenyl]-1-methyl-pyrazol-4-yl]pyrazolo[1,5-a]pyrimidine-3-carboxamide] were 0.57 nM, 1.7 nM and 59 nM.
In the case of `NCc1ccnn1-c1cccc(Oc2ccc(OC(F)F)c(-c3n[nH]cc3NC(=O)c3cnn4cccnc34)c2)c1` [Example 65, N-[3-[5-[3-[5-(aminomethyl)pyrazol-1-yl]phenoxy]-2-(difluoromethoxy)phenyl]-1H-pyrazol-4-yl]pyrazolo[1,5-a]pyrimidine-3-carboxamide], the inhibition constant Ki in experiment [1] stood at 0.63 nM; in experiment [2] it was 0.85 nM. For the same compound, the IC50 in experiment [3] was determined as 120 nM.
Taken in the same sequence, the figures for `CNCc1ccnn1-c1cccc(Oc2ccc(OC(F)F)c(-c3nn(C)cc3NC(=O)c3cnn4cccnc34)c2)c1` [Example 66, N-[3-[2-(difluoromethoxy)-5-[3-[5-(methylaminomethyl)pyrazol-1-yl]phenoxy]phenyl]-1-methyl-pyrazol-4-yl]pyrazolo[1,5-a]pyrimidine-3-carboxamide] were 3.6 nM, 3.9 nM and 130 nM.
For the compound `CC(C)(C#N)c1ccc(Oc2ccc(OC(F)F)c(-c3n[nH]cc3NC(=O)c3cnn4cccnc34)c2)cc1` [Example 67, N-[3-[5-[4-(1-cyano-1-methyl-ethyl)phenoxy]-2-(difluoromethoxy)phenyl]-1H-pyrazol-4-yl]pyrazolo[1,5-a]pyrimidine-3-carboxamide], the Ki stood at 1.2 nM in experiment [1] and 2.1 nM in experiment [2]. Also, the IC50 in experiment [3] turned out to be 25 nM.
`Cn1cc(NC(=O)c2cnn3cccnc23)c(-c2cc(Oc3ccc4c(c3)CN(C3COC3)CC4)ccc2OC(F)F)n1` [Example 69, N-[3-[2-(difluoromethoxy)-5-[[2-(oxetan-3-yl)-3,4-dihydro-1H-isoquinolin-7-yl]oxy]phenyl]-1-methyl-pyrazol-4-yl]pyrazolo[1,5-a]pyrimidine-3-carboxamide]: the Ki worked out at 0.53 nM in experiment [1] and 1.3 nM in experiment [2]. For the same compound, in experiment [3], the IC50 was found to be 37 nM.
In the case of `Cn1cc(NC(=O)c2cnn3cccnc23)c(-c2cc(Oc3cccc(C4(F)CNC4)c3)ccc2OC(F)F)n1` [Example 70, N-[3-[2-(difluoromethoxy)-5-[3-(3-fluoroazetidin-3-yl)phenoxy]phenyl]-1-methyl-pyrazol-4-yl]pyrazolo[1,5-a]pyrimidine-3-carboxamide], the Ki in experiment [1] came out at 0.26 nM; in experiment [2] it was 0.27 nM. In experiment [3], the IC50 was 23 nM.
Taken in the same sequence, the figures for `COC1(c2cccc(Oc3ccc(OC(F)F)c(-c4nn(C)cc4NC(=O)c4cnn5cccnc45)c3)c2)CN(C)C1` [Example 71, N-[3-[2-(difluoromethoxy)-5-[3-(3-methoxy-1-methyl-azetidin-3-yl)phenoxy]phenyl]-1-methyl-pyrazol-4-yl]pyrazolo[1,5-a]pyrimidine-3-carboxamide] were 0.88 nM, 0.94 nM and 47 nM.
